Source: US6562115B2, “Azo dyes and their preparation and use” (Ilford Imaging Switzerland GmbH, priority 2000, dated 2003)

Assay: Dye solubility in deionised water
Type: physicochemical
Details: for solubility (in words): assessment of state-of-the-art dyes in the background section
Procedure: An excess of dye was vigorously stirred in deionised water for 1 hour at a temperature of 50° C. The mixture was then cooled down to a temperature of 20° C. and filtered. Dye solubility was determined spectroscopically in the clear filtered solution.

Compound: Nc1ccc2cc(S(=O)(=O)[O-])cc(O)c2c1N=Nc1cc(NC(=O)CCC(=O)[O-])ccc1S(=O)(=O)[O-].[Na+].[Na+].[Na+] [Compound 120]
- solubility in comparison to the known dye Acid Red 37 (comparison drawn from Table 3): significantly higher

Compound: Nc1ccc2cc(S(=O)(=O)[O-])cc(O)c2c1N=Nc1ccc(Nc2nc(NCCS(=O)(=O)[O-])nc(NCCS(=O)(=O)[O-])n2)cc1S(=O)(=O)[O-].[Na+].[Na+].[Na+].[Na+] [II]
- solubility (in words): high solubility

Compound: Acid Red 37
- solubility (in words): not sufficient
- Solubility (in g per 100 ml of water) (excess dye stirred in deionised water 1 hour at 50° C., cooled to 20° C., filtered, determined spectroscopically): 5 g per 100 ml of water
